Measurements as given in patent US5273974A, “Condensed heterocyclic compounds, their production and use” (priority 1990, dated 1993).
Where a name gives a salt, the structure may show the parent alone.

Target: T1, Acetylcholinesterase (Rattus norvegicus, UniProt P37136)
T1 construct: S1 fraction of a homogenate of male Wistar rat cerebral cortex; from tissue; host or cells: male Wistar rat cerebral cortex, S1 fraction of homogenate
Test: Cholinesterase inhibitory activity assayed with (acetyl-[3H])-acetylcholine (S1 fraction of male Wistar rat cerebral cortex homogenate)
Assay type: biochemical
Conditions: (acetyl-[3H])-acetylcholine substrate, 30 minutes incubation
Procedure: The cholinesterase inhibitory activity of the compound of the present invention was assayed with (acetyl-[3H])-acetylcholine. Thus, using the S1 fraction of a homogenate of male Wistar rat cerebral cortex as the cholinesterase source, (acetyl-[3H])-acetylcholine and the compound of the invention were added as the substrate and the test substance, respectively, and the mixture was incubated for 30 minutes. After the reaction was terminated, a toluene-based scintillant was added and, after shaking, the reaction product [3H]-acetic acid which was transferred to the toluene layer was determined with a scintillation counter to estimate the cholinesterase activity.

T1 sequence (P37136 32-614): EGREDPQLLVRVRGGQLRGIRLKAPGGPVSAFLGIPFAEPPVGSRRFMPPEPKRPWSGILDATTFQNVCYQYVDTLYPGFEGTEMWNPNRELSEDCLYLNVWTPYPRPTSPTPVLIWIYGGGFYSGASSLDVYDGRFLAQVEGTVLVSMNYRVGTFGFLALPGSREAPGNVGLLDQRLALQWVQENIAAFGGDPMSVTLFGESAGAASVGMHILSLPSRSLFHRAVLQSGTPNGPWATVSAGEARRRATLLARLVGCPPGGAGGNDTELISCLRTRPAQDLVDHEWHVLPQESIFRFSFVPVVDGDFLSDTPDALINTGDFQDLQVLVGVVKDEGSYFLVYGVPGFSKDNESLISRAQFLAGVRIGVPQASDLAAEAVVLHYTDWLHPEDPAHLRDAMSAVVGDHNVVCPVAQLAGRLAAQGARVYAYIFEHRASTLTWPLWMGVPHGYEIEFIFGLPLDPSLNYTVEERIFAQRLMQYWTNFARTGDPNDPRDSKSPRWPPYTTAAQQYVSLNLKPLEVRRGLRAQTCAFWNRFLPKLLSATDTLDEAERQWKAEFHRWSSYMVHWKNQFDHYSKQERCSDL

| Structure (SMILES) | IC50 |
| --- | --- |
| CN1CCc2ccc(C(=O)CCC3CCN(Cc4ccccc4)CC3)cc2CC1 [Example 23, 3-Methyl-7-[1-oxo-3-[1-(phenylmethyl)piperidin-4-yl]-propyl-2,3,4,5-tetrahydro-1H-3-benzazepinedihydrochloride] | 6.5 nM |
| O=C(CCC1CCN(Cc2ccccc2)CC1)c1ccc2c(c1)CCN2 [Example 13, 2,3-Dihydro-5-[1-oxo-3-[1-(phenylmethyl)piperidin-4-yl]propyl]-1H-indole fumarate] | 20 nM |
| O=C(CCC1CCN(Cc2ccccc2)CC1)c1ccc2c(c1)NCCC2 [Example 6-B, 7-[1-Oxo-3-[1-(phenylmethyl)piperidin-4-yl]propyl]-1,2,3,4-tetrahydroquinoline fumarate] | 54 nM |
| O=C(CCC1CCN(Cc2ccccc2)CC1)c1ccc2c(c1)CCNCC2 [Example 22, 7-[1-Oxo-3-[1-(phenylmethyl)piperidin-4-yl]propyl]-2,3,4,5-tetrahydro-1H-3-benzazepine dihydrochloride] | 7.6 nM |
| O=C(CCC1CCN(Cc2ccccc2)CC1)c1ccc2c(c1)CCCN2Cc1ccccc1 [Example 3, 1-(Phenylmethyl)-6-[3-[1-(phenylmethyl)piperidin-4-yl]-1-oxopropyl]-1,2,3,4-tetrahydroquinoline dihydrochloride] | 120 nM |
| CCCN1CCc2cc(C(=O)CCC3CCN(Cc4ccccc4)CC3)ccc21 [Example 19-12] | 22 nM |
| CCCCCN1CCc2cc(C(=O)CCC3CCN(Cc4ccccc4)CC3)ccc21 [Example 19-14] | 47 nM |
| CCN1CCc2cc(C(=O)CCC3CCN(Cc4ccccc4)CC3)ccc21 [Example 19-11] | 11 nM |
| O=C(CCC1CCN(Cc2ccccc2)CC1)c1ccc2c(c1)CCCN2 [Example 2, 6-[1-Oxo-3-[1-(phenylmethyl)piperidin-4-yl]propyl]-1,2,3,4-tetrahydroquinoline dihydrochloride] | 14 nM |
| CN1CCCc2cc(C(=O)CCC3CCN(Cc4ccccc4)CC3)ccc21 [Example 8-A, 1-Methyl-6-[1-oxo-3-[1-(phenylmethyl)piperidin-4-yl]-propyl]-1,2,3,4-tetrahydroquinoline fumarate] | 24 nM |
| O=C(CCC1CCN(Cc2ccccc2)CC1)c1ccc2c(c1)NCCCCC2 [Example 27, 9-[1-Oxo-3-[1-(phenylmethyl)piperidin-4-yl]propyl]-1,2,3,4,5,6-hexahydro-1-benzazocine fumarate] | 127 nM |
| O=C(CCC1CCN(Cc2cccc(F)c2)CC1)c1ccc2c(c1)NCCCC2 [Example 19-21] | 145 nM |
| CCCCN1CCc2cc(C(=O)CCC3CCN(Cc4ccccc4)CC3)ccc21 [Example 19-13] | 29 nM |
| CN1CCCc2ccc(C(=O)CCC3CCN(Cc4ccccc4)CC3)cc21 [Example 8-B, 1-methyl-7-[1-oxo-3-[1-(phenylmethyl)piperidin-4-yl]propyl]-1,2,3,4-tetrahydroquinoline fumarate] | 36 nM |
| O=C(CCC1CCN(Cc2ccccc2)CC1)c1ccc2c(c1)CCCCN2 [Example 19-20] | 125 nM |
| O=C(CCC1CCN(Cc2cccc(F)c2)CC1)c1ccc2c(c1)CCN2 [Example 19-8] | 16 nM |
| CN1CCCc2cc(C(=O)CCC3CCN(Cc4ccccc4)CC3)ccc21 [Example 4, 1-Methyl-6-[3-[1-(phenylmethyl)piperidin-4-yl]-1-oxopropyl]-1,2,3,4-tetrahydroquinoline dihydrochloride] | 10 nM |
| O=C(CCC1CCN(Cc2ccccc2)CC1)c1ccc2c(c1)CCO2 [Example 21, 2,3-Dihydro-5-[1-oxo-3-[1-(phenylmethyl)piperidin-4-yl]propyl]benzofuran hydrochloride] | 28 nM |
| CN1CCc2cc(C(=O)CCC3CCN(Cc4ccccc4)CC3)ccc21 [Example 14, 2,3-Dihydro-1-methyl-5-[1-oxo-3-[1-(phenylmethyl)-piperidin-4-yl]propyl]-1H-indole fumarate] | 10 nM |
| O=C(CCC1CCN(Cc2ccccc2)CC1)c1ccc2c(c1)CCN2CCc1ccccc1 [Example 19-15] | 28 nM |
| O=C(CCC1CCN(Cc2ccccc2)CC1)c1ccc2c(c1)NCC2 [Example 25, 2,3-Dihydro-6-[1-oxo-3-[1-(phenylmethyl)piperidin-4-yl]propyl]-1H-indole fumarate] | 113 nM |
| O=C(CCC1CCN(Cc2ccccc2)CC1)c1ccc2c(c1)CCCN2 [Example 6-A, 6-[1-Oxo-3-[1-(phenylmethyl)piperidin-4-yl]propyl]-1,2,3,4-tetrahydroquinoline fumarate] | 54 nM |
| O=C(CCC1CCN(Cc2ccccc2)CC1)c1ccc2c(c1)NCCCC2 [19-16] | 102 nM |
| CN1CCCCc2ccc(C(=O)CCC3CCN(Cc4ccccc4)CC3)cc21 [Example 19-17] | 81 nM |
| Cc1cccc(CN2CCC(CCC(=O)c3ccc4c(c3)CCN4)CC2)c1 [Example 19-7] | 50 nM |
| CC(=O)N1CCCc2cc(C(=O)CCC3CCN(Cc4ccccc4)CC3)ccc21 [Example 16, 1-Acetyl-6-[1-oxo-3-[1-(phenylmethyl)piperidin-4-yl]propyl]-1,2,3,4-tetrahydroquinoline fumarate] | 14 nM |
| O=C(CCC1CCN(Cc2ccccc2)CC1)c1ccc2c(c1)CCCN2Cc1ccccc1 [Example 10, 1-(Phenylmethyl)-6-[1-oxo-3-[1-(phenylmethyl)piperidin-4-yl]propyl]-1,2,3,4-tetrahydroquinoline fumarate] | 160 nM |
| O=C(CCC1CCN(Cc2ccccc2)CC1)c1ccc2c(c1)CCN2Cc1ccccc1 [Example 15, 2,3-Dihydro-5-[1-oxo-3-[1-(phenylmethyl)piperidin-4-yl]propyl]-1-(phenylmethyl)-1H-indole fumarate] | 68 nM |
